Structures are written as SMILES.

The subject of this test is PBMC of healthy adult blood donors from Colombo, Sri Lanka. Put plainly: Ex vivo IFNγ ELISPOT, HLA-matched PBMC of Sri Lankan blood donors. The class given is cell-based, human. Set-up: Total Response per epitope: unit not given here. As to conditions: for Total Response per epitope: IFNγ ELISPOT response summed over responding donors; for # donors responded: number of donors responding to the epitope, HLA-matched PBMC, proteome-wide screen; for Total Response per epitope / T cell response [SFC]: per epitope; for T cell response [SFC]: ex vivo IFNγ SFC/10^6 PBMC; for # of responders: responding donors, HLA allele(s).

As to `CC(C)C[C@H](N)C(=O)N1CCC[C@H]1C(=O)N[C@@H](CCC(=O)O)C(=O)N[C@@H](CCC(=O)O)C(=O)N[C@@H](CCC(N)=O)C(=O)N[C@@H](CC(=O)O)C(=O)N[C@@H](CCC(N)=O)C(=O)N[C@@H](CC(N)=O)C(=O)N[C@@H](Cc1ccc(O)cc1)C(=O)O`, the “Total Response per epitope” value amounted to 1166.7 and the “# donors responded” value came out at 5.
For `CC(C)C[C@H](NC(=O)[C@H](CC(C)C)NC(=O)[C@H](CC(C)C)NC(=O)[C@@H](NC(=O)[C@H](CCC(=O)O)NC(=O)[C@H](CC(C)C)NC(=O)[C@@H](NC(=O)[C@H](CCC(=O)O)NC(=O)[C@@H]1CCCN1C(=O)[C@@H](N)CC(C)C)[C@@H](C)O)[C@@H](C)O)C(=O)O`, the “Total Response per epitope” value is given as 296.7 and the “# donors responded” value turned out to be 4.
For `CSCC[C@H](NC(=O)[C@H](Cc1ccccc1)NC(=O)[C@@H](NC(=O)[C@@H]1CCCN1C(=O)[C@@H](N)CC(C)C)[C@@H](C)O)C(=O)N[C@H](C(=O)N[C@@H](CCC(N)=O)C(=O)N[C@@H](CCCCN)C(=O)N[C@@H](C)C(=O)N[C@@H](CCCNC(=N)N)C(=O)O)[C@@H](C)O`, in that order: 1263.3 and 8.
For the compound `CC[C@H](C)[C@H](NC(=O)[C@H](Cc1ccccc1)NC(=O)[C@H](C)NC(=O)[C@@H](N)CCSC)C(=O)N[C@@H](C)C(=O)N[C@@H](Cc1ccccc1)C(=O)N[C@@H](CC(C)C)C(=O)N[C@@H](CCCNC(=N)N)C(=O)N[C@@H](Cc1ccccc1)C(=O)O`, the “Total Response per epitope” value is 146.7 and the “# donors responded” value was determined as 2.
With `CC[C@H](C)[C@H](NC(=O)[C@H](CC(N)=O)NC(=O)[C@H](C)NC(=O)[C@@H](N)CCSC)C(=O)N[C@@H](Cc1ccccc1)C(=O)N[C@@H](CCCNC(=N)N)C(=O)NCC(=O)N[C@@H](CO)C(=O)N[C@@H](Cc1ccc(O)cc1)C(=O)O`, the “Total Response per epitope” value was 821.7 and the “# donors responded” value came to 5.
In the case of `CC[C@H](C)[C@H](NC(=O)[C@H](CC(C)C)NC(=O)[C@H](C)NC(=O)[C@H](CC(C)C)NC(=O)[C@H](CC(C)C)NC(=O)[C@@H](N)CCSC)C(=O)N[C@@H](C)C(=O)N[C@H](C(=O)N[C@@H](CC(C)C)C(=O)O)C(C)C`, the “Total Response per epitope” value worked out at 81.7 and the “# donors responded” value is 1.
For `CC[C@H](C)[C@H](NC(=O)[C@H](CC(C)C)NC(=O)[C@H](CC(C)C)NC(=O)[C@@H](N)CCSC)C(=O)N[C@@H](CC(C)C)C(=O)N[C@@H](CS)C(=O)N[C@H](C(=O)N[C@H](C(=O)N[C@@H](CCC(N)=O)C(=O)N[C@H](C(=O)O)C(C)C)[C@@H](C)O)C(C)C`, in that order: 43.3 and 1.
For `CSCC[C@H](NC(=O)[C@H](CO)NC(=O)[C@@H]1CCCN1C(=O)[C@@H](N)CCSC)C(=O)N[C@@H](CCCCN)C(=O)N[C@@H](CCCNC(=N)N)C(=O)N[C@@H](Cc1ccccc1)C(=O)N[C@@H](CCCNC(=N)N)C(=O)N[C@@H](CCCNC(=N)N)C(=O)N[C@@H](CCC(=O)O)C(=O)O`, in that order: 1336.7 and 5.
As for `CC[C@H](C)[C@H](NC(=O)[C@@H](NC(=O)[C@H](CO)NC(=O)[C@@H]1CCCN1C(=O)[C@@H](N)CCSC)C(C)C)C(=O)N[C@@H](CCC(=O)O)C(=O)N[C@@H](CCCCN)C(=O)N[C@@H](CCSC)C(=O)N[C@@H](CCC(=O)O)C(=O)N[C@H](C(=O)O)[C@@H](C)O`, the “Total Response per epitope” value was 783.3 and the “# donors responded” value was determined as 2.
On to `CSCC[C@H](N)C(=O)N1CCC[C@H]1C(=O)N[C@H](C(=O)N[C@H](C(=O)N[C@@H](Cc1c[nH]cn1)C(=O)N[C@@H](CO)C(=O)N[C@@H](CO)C(=O)N[C@@H](C)C(=O)N[C@@H](C)C(=O)N[C@@H](CCC(N)=O)C(=O)O)[C@@H](C)O)C(C)C`, for which the “Total Response per epitope” value was 183.3 and the “# donors responded” value amounted to 2.
With `CSCC[C@H](NC(=O)[C@@H](NC(=O)[C@H](CCCNC(=N)N)NC(=O)CNC(=O)[C@H](CC(C)C)NC(=O)[C@H](CC(=O)O)NC(=O)[C@H](CCCNC(=N)N)NC(=O)[C@H](Cc1ccccc1)NC(=O)[C@H](CO)NC(=O)[C@@H](N)CCSC)C(C)C)C(=O)O`, the “Total Response per epitope” value amounted to 3250.0, the “# donors responded” value was determined as 8, the “T cell response [SFC]” value was 3250 SFC and the “# of responders” value was determined as 8.
Turning to `CSCC[C@H](NC(=O)[C@H](CO)NC(=O)[C@H](Cc1ccc(O)cc1)NC(=O)[C@H](CO)NC(=O)[C@@H](N)CCSC)C(=O)N[C@@H](CS)C(=O)N[C@H](C(=O)NCC(=O)N[C@@H](CCCCN)C(=O)N[C@@H](Cc1ccccc1)C(=O)O)[C@@H](C)O`, the “Total Response per epitope” value was determined as 2553.3, the “# donors responded” value was found to be 6, the “T cell response [SFC]” value turned out to be 2553 SFC and the “# of responders” value turned out to be 6.
Regarding `CSCC[C@H](NC(=O)[C@@H](NC(=O)[C@H](Cc1ccc(O)cc1)NC(=O)[C@H](CO)NC(=O)[C@@H](N)CCSC)[C@@H](C)O)C(=O)N[C@@H](CS)C(=O)N[C@@H](CO)C(=O)NCC(=O)N[C@@H](CCCCN)C(=O)O`, the “Total Response per epitope” value is on record as 23.3 and the “# donors responded” value is given as 1.
In the case of `CC[C@H](C)[C@H](NC(=O)[C@H](Cc1ccc(O)cc1)NC(=O)CNC(=O)[C@H](CCCNC(=N)N)NC(=O)[C@H](C)NC(=O)[C@H](C)NC(=O)[C@@H](NC(=O)[C@H](CO)NC(=O)[C@H](C)NC(=O)[C@@H]1CCCN1)[C@@H](C)CC)C(=O)O`, the “Total Response per epitope” value is 611.7 and the “# donors responded” value was 2.
For `C[C@H](NC(=O)[C@H](Cc1c[nH]c2ccccc12)NC(=O)[C@@H](NC(=O)[C@H](CCCNC(=N)N)NC(=O)[C@H](Cc1ccc(O)cc1)NC(=O)[C@@H]1CCCN1C(=O)[C@H](CC(N)=O)NC(=O)[C@H](CCC(=O)O)NC(=O)[C@@H](N)CCC(N)=O)[C@@H](C)O)C(=O)N[C@@H](Cc1ccc(O)cc1)C(=O)O`, in that order: 265.0 and 1.
For `CC(C)[C@H](NC(=O)CNC(=O)[C@H](CO)NC(=O)[C@@H](N)CCC(N)=O)C(=O)N[C@@H](CC(=O)O)C(=O)N[C@H](C(=O)N[C@@H](Cc1ccccc1)C(=O)N[C@@H](Cc1ccccc1)C(=O)N[C@H](C(=O)N1CCC[C@H]1C(=O)O)[C@@H](C)O)C(C)C`, in that order: 103.3 and 1.
For `CC(C)C[C@H](NC(=O)[C@H](CO)NC(=O)CNC(=O)[C@H](CS)NC(=O)[C@H](Cc1c[nH]c2ccccc12)NC(=O)[C@H](CCC(N)=O)NC(=O)[C@H](CC(=O)O)NC(=O)[C@H](CCC(=O)O)NC(=O)[C@@H](N)CCCNC(=N)N)C(=O)O`, in that order: 48.3 and 1.
For `CSCC[C@H](NC(=O)[C@H](Cc1ccc(O)cc1)NC(=O)[C@@H](N)CCCNC(=N)N)C(=O)NCC(=O)N[C@@H](CCC(=O)O)C(=O)N[C@@H](CC(=O)O)C(=O)NCC(=O)N[C@@H](CS)C(=O)N[C@@H](Cc1c[nH]c2ccccc12)C(=O)N[C@@H](Cc1ccc(O)cc1)C(=O)O`, the “Total Response per epitope” value is 66.7 and the “# donors responded” value is 1.
For `CC[C@H](C)[C@H](NC(=O)[C@H](CCC(=O)O)NC(=O)[C@H](Cc1ccccc1)NC(=O)[C@@H]1CCCN1C(=O)[C@@H](NC(=O)[C@H](CCCCN)NC(=O)[C@H](CS)NC(=O)[C@@H]1CCCN1C(=O)[C@@H](N)CO)[C@@H](C)CC)C(=O)N[C@@H](CCSC)C(=O)O`, in that order: 1156.0 and 5.
For `CC[C@H](C)[C@H](NC(=O)[C@@H](NC(=O)[C@@H](NC(=O)[C@H](CC(N)=O)NC(=O)[C@H](Cc1c[nH]c2ccccc12)NC(=O)[C@H](Cc1ccccc1)NC(=O)[C@H](CCCCN)NC(=O)CNC(=O)[C@@H]1CCCN1C(=O)[C@@H](N)CO)[C@@H](C)O)[C@@H](C)O)C(=O)O`, in that order: 826.7 and 3.
As to `CC[C@H](C)[C@H](NC(=O)[C@@H](NC(=O)[C@@H]1CCCN1C(=O)[C@@H](N)CO)[C@@H](C)CC)C(=O)N[C@@H](CC(N)=O)C(=O)N[C@@H](CCCNC(=N)N)C(=O)N[C@@H](CCC(=O)O)C(=O)NCC(=O)N[C@@H](CCCCN)C(=O)N[C@H](C(=O)O)C(C)C`, the “Total Response per epitope” value was determined as 106.7 and the “# donors responded” value turned out to be 1.
For `CC[C@H](C)[C@H](NC(=O)[C@H](CO)NC(=O)[C@H](CC(C)C)NC(=O)[C@@H](NC(=O)[C@@H]1CCCN1C(=O)[C@@H](N)CO)[C@@H](C)CC)C(=O)N[C@H](C(=O)N[C@H](C(=O)N[C@@H](CO)C(=O)N[C@@H](CCC(=O)O)C(=O)O)[C@@H](C)CC)[C@@H](C)O`, in that order: 1068.3 and 6.
For `CC(C)C[C@H](NC(=O)[C@H](CC(C)C)NC(=O)[C@@H](NC(=O)[C@H](C)NC(=O)[C@H](C)NC(=O)[C@@H](NC(=O)[C@H](CC(C)C)NC(=O)[C@@H](N)[C@@H](C)O)[C@@H](C)O)C(C)C)C(=O)N[C@@H](CC(C)C)C(=O)N[C@H](C(=O)O)C(C)C`, in that order: 66.7 and 1.
Regarding `CSCC[C@H](NC(=O)[C@H](Cc1ccc(O)cc1)NC(=O)[C@@H]1CCCN1C(=O)[C@H](CC(N)=O)NC(=O)[C@H](CC(C)C)NC(=O)[C@@H](N)C(C)C)C(=O)N1CCC[C@H]1C(=O)N[C@@H](CO)C(=O)N[C@H](C(=O)O)C(C)C`, the “Total Response per epitope” value stood at 41.7 and the “# donors responded” value is on record as 1.
For `CSCC[C@H](NC(=O)[C@H](CC(C)C)NC(=O)[C@H](CO)NC(=O)[C@H](Cc1c[nH]c2ccccc12)NC(=O)[C@H](CCSC)NC(=O)[C@H](CCC(N)=O)NC(=O)[C@H](C)NC(=O)[C@@H](N)Cc1ccc(O)cc1)C(=O)N[C@@H](Cc1ccc(O)cc1)C(=O)O`, in that order: 38.3 and 1.
For `CSCC[C@H](NC(=O)[C@H](CCC(N)=O)NC(=O)[C@H](C)NC(=O)[C@@H](N)Cc1ccc(O)cc1)C(=O)N[C@@H](Cc1c[nH]c2ccccc12)C(=O)N[C@@H](CO)C(=O)N[C@@H](CC(C)C)C(=O)N[C@@H](CCSC)C(=O)N[C@@H](Cc1ccc(O)cc1)C(=O)N[C@@H](Cc1ccccc1)C(=O)O`, in that order: 33.3 and 1.

These data come from patent US10308689B2, “Dengue virus (DV) polypeptide sequences, T cell epitopes and methods and uses thereof” (LA JOLLA INSTITUTE FOR ALLERGY AND IMMUNOLOGY, priority 2010, dated 2019).
